Data published in ChEMBL document CHEMBL3885881, “DrugMatrix”.

Organism: Rattus norvegicus
Assay: DrugMatrix - Regimen: Daily Repeat
Type: toxicity, organism-based, Sprague-Dawley
Design: regimen Daily Repeat, gender Male, age 6-8 weeks
Conditions: in vivo, sc, […], route subcutaneous, dose 9.6 mg/Kg, dose level Low; for ABSOLUTE BASOPHIL / ABSOLUTE EOSINOPHIL / ABSOLUTE LYMPHOCYTE / ABSOLUTE MONOCYTE / ABSOLUTE SEGMENTED NEUTROPHIL / BASOPHIL / EOSINOPHIL / ERYTHROCYTE COUNT / HEMATOCRIT / HEMOGLOBIN / LEUKOCYTE COUNT / LYMPHOCYTE / MEAN CORPUSCULAR HEMOGLOBIN / MEAN CORPUSCULAR HEMOGLOBIN CONCENTRATION / MEAN CORPUSCULAR VOLUME / MONOCYTE / NEUTROPHIL / NUCLEATED RED BLOOD CELLS / PLATELET COUNT: tissue Blood; for ALANINE AMINOTRANSFERASE / ALBUMIN / ALKALINE PHOSPHATASE / ASPARTATE AMINOTRANSFERASE / BLOOD UREA NITROGEN / CARBON DIOXIDE / CHLORIDE / CHOLESTEROL / CREATINE PHOSPHOKINASE / CREATININE / GLUCOSE / LACTATE DEHYDROGENASE / LIPASE / PHOSPHORUS / POTASSIUM / SODIUM / TOTAL BILIRUBIN / TOTAL PROTEIN / URIC ACID: tissue Plasma

CCCCNc1ccc(C(=O)OCCN(C)C)cc1 [TETRACAINE]
ABSOLUTE BASOPHIL (72 h, time 3 day): 0 CELLS/uL
ABSOLUTE EOSINOPHIL (72 h, time 3 day): 226.67 CELLS/uL
ABSOLUTE LYMPHOCYTE (72 h, time 3 day): 14925.33 CELLS/uL
ABSOLUTE MONOCYTE (72 h, time 3 day): 512.67 CELLS/uL
ABSOLUTE SEGMENTED NEUTROPHIL (72 h, time 3 day): 768.67 CELLS/uL
BASOPHIL (72 h, time 3 day): 0%
EOSINOPHIL (72 h, time 3 day): 1.67%
ERYTHROCYTE COUNT (72 h, time 3 day): 5.36 x10E6/uL
HEMATOCRIT (72 h, time 3 day): 34.5%
HEMOGLOBIN (72 h, time 3 day): 13.5 G/DL
LEUKOCYTE COUNT (72 h, time 3 day): 16.43 x10E3/uL
LYMPHOCYTE (72 h, time 3 day): 90.67%
MEAN CORPUSCULAR HEMOGLOBIN (72 h, time 3 day): 25.17 pg
MEAN CORPUSCULAR HEMOGLOBIN CONCENTRATION (72 h, time 3 day): 39.17 G/DL
MEAN CORPUSCULAR VOLUME (72 h, time 3 day): 64.4 fL
MONOCYTE (72 h, time 3 day): 2.33%
NEUTROPHIL (72 h, time 3 day): 5.33%
NUCLEATED RED BLOOD CELLS (72 h, time 3 day): 0.33 /100WBC
PLATELET COUNT (72 h, time 3 day): 1368.67 x10E3/uL
ALANINE AMINOTRANSFERASE (72 h, time 3 day): 52.33 u/L
ALBUMIN (72 h, time 3 day): 4.1 G/DL
ALKALINE PHOSPHATASE (72 h, time 3 day): 338.33 u/L
ASPARTATE AMINOTRANSFERASE (72 h, time 3 day): 87.67 u/L
BLOOD UREA NITROGEN (72 h, time 3 day): 15 mg/dL
CARBON DIOXIDE (72 h, time 3 day): 22.67 mmol/L
CHLORIDE (72 h, time 3 day): 104.67 MEQ/L
CHOLESTEROL (72 h, time 3 day): 79.67 mg/dL
CREATINE PHOSPHOKINASE (72 h, time 3 day): 530.33 u/L
CREATININE (72 h, time 3 day): 0.16 mg/dL
GLUCOSE (72 h, time 3 day): 187 mg/dL
LACTATE DEHYDROGENASE (72 h, time 3 day): 122.67 u/L
LIPASE (72 h, time 3 day): 9.33 u/L
PHOSPHORUS (72 h, time 3 day): 13.8 mg/dL
POTASSIUM (72 h, time 3 day): 5.89 MEQ/L
SODIUM (72 h, time 3 day): 147.2 MEQ/L
TOTAL BILIRUBIN (72 h, time 3 day): 0.2 mg/dL
TOTAL PROTEIN (72 h, time 3 day): 5.73 G/DL
URIC ACID (72 h, time 3 day): 1.9 mg/dL
ABSOLUTE BASOPHIL (120 h, time 5 day): 0 CELLS/uL
ABSOLUTE EOSINOPHIL (120 h, time 5 day): 0 CELLS/uL
ABSOLUTE LYMPHOCYTE (120 h, time 5 day): 14217 CELLS/uL
ABSOLUTE MONOCYTE (120 h, time 5 day): 0 CELLS/uL
ABSOLUTE SEGMENTED NEUTROPHIL (120 h, time 5 day): 2349.67 CELLS/uL
BASOPHIL (120 h, time 5 day): 0%
EOSINOPHIL (120 h, time 5 day): 0%
ERYTHROCYTE COUNT (120 h, time 5 day): 5.59 x10E6/uL
HEMATOCRIT (120 h, time 5 day): 35.87%
HEMOGLOBIN (120 h, time 5 day): 14.33 G/DL
LEUKOCYTE COUNT (120 h, time 5 day): 16.57 x10E3/uL
LYMPHOCYTE (120 h, time 5 day): 85.67%
MEAN CORPUSCULAR HEMOGLOBIN (120 h, time 5 day): 25.6 pg
MEAN CORPUSCULAR HEMOGLOBIN CONCENTRATION (120 h, time 5 day): 39.97 G/DL
MEAN CORPUSCULAR VOLUME (120 h, time 5 day): 64.13 fL
MONOCYTE (120 h, time 5 day): 0%
NEUTROPHIL (120 h, time 5 day): 14.33%
NUCLEATED RED BLOOD CELLS (120 h, time 5 day): 0.33 /100WBC
PLATELET COUNT (120 h, time 5 day): 1151 x10E3/uL
ALANINE AMINOTRANSFERASE (120 h, time 5 day): 58 u/L
ALBUMIN (120 h, time 5 day): 4.1 G/DL
ALKALINE PHOSPHATASE (120 h, time 5 day): 278.67 u/L
ASPARTATE AMINOTRANSFERASE (120 h, time 5 day): 76.33 u/L
BLOOD UREA NITROGEN (120 h, time 5 day): 17.67 mg/dL
CARBON DIOXIDE (120 h, time 5 day): 23.33 mmol/L
CHLORIDE (120 h, time 5 day): 103.67 MEQ/L
CHOLESTEROL (120 h, time 5 day): 76.33 mg/dL
CREATINE PHOSPHOKINASE (120 h, time 5 day): 262.33 u/L
CREATININE (120 h, time 5 day): 0.16 mg/dL
GLUCOSE (120 h, time 5 day): 153.67 mg/dL
LACTATE DEHYDROGENASE (120 h, time 5 day): 205 u/L
LIPASE (120 h, time 5 day): 9.67 u/L
PHOSPHORUS (120 h, time 5 day): 12.83 mg/dL
POTASSIUM (120 h, time 5 day): 6.7 MEQ/L
SODIUM (120 h, time 5 day): 147.8 MEQ/L
TOTAL BILIRUBIN (120 h, time 5 day): 0.23 mg/dL
TOTAL PROTEIN (120 h, time 5 day): 5.73 G/DL
URIC ACID (120 h, time 5 day): 1.53 mg/dL
